Results as given in paper PMC6412019, “Discovery of NV-5138, the first selective Brain mTORC1 activator” (Scientific Reports, 2019).

Test system: HeLa cells
Assay: 14C-leucine protein incorporation assay in HeLa cells
Assay type: cell-based, human
Conditions: 30 min labeling, CHX 10 ug/ml
Description: Since NV-5138 is an amino acid, we performed two different experiments to rule out any potential liabilities that could arise from the incorporation of NV-5138 into proteins. We first determined whether NV-5138 substitutes for any branched-chain amino acid or methionine into newly synthesized proteins using liquid chromatography followed by tandem mass spectroscopy (LC-MS/MS). NV-5138 (100 µM) or vehicle was incubated with serum and leucine-starved 293T cells for 6 hours followed by proteomic analysis by mass spectrometry.
After incubation, cells were harvested and lysed in Tris/HCl 10 mM pH 7.4 plus 1% NP40. Lysate were mixed with water and 20% trichloroacetic acid (1:1:2) and incubated on ice for 2 h to precipitate the protein. Proteins were collected by centrifugation, solubilized in NaOH, placed in scintillation fluid and read on a Wallac Microbeta Trilux 2450 with a 2-min count. Scintillation values were normalized as the percentage of the counts from the DMSO-treated wells.

Structure (SMILES): C[C@@H]1C[C@@H]([C@H](O)CC2CC(=O)NC(=O)C2)C(=O)[C@@H](C)C1 [cyclohexamide, reference compound]
- effect on incorporation of 14C-leucine into precipitated proteins: blocked incorporation
